Patent US20190216751A1, “Compositions and Methods for the Treatment and Prevention of Cancer” (California State University Northridge, priority 2017, published 2019)

Assays:
E-cadherin in 4T1 cells = test: Western blot E-cadherin, TGFβ-induced EMT; assay type: cell-based, mouse; settings: 10 μM each drug, re-treated with TGFβ 2.5 ng/mL at 48 hours, 96-hour time point
Procedure: (§1) Next, the inventors investigated whether blockade of HDAC6 and DHPS activity could further suppress TGFβ-induced EMT either independently or simultaneously. To test this, 4T1 cells were treated with either TubA at 10 μM, GC7 at 10 μM or both for 48 hours. At this time point, protein lysates were collected as well as phase-contrast images (FIGS. 6B and 6C). At that same time point, the media was changed and the cells were re-treated with the same drugs at the same concentrations; however, this time with the addition of TGFβ at 2.5 ng/mL. The inventors collected protein lysates and phase-contrast images just one day post TGFβ treatment, calling this the 72-hour time point (FIGS. 6B and 6C). In addition, the inventors collected mRNA, protein lysates, phase-contrast and immunofluorescences images two days post TGFβ treatment, calling this the 96-hour time point (FIGS. 6A, 6B, 6C and 6D).
Cell lines were plated in a 6 well plate at 1e5 cells/mL and left to attach overnight. Cells were then treated if necessary then lysed using Radioimmunoprecipitation assay (RIPA) buffer containing phosphatase and protease inhibitors and left to rotate at 4° C. for at least 3 hours. Lysates were then cleared by centrifugation at 12,000 RPM for 10 minutes at 4° C. Protein concentrations were determined using Bradford Assay. […] Band intensity graphs were quantified using Fiji software after image thresholding.

[1] = system: eIF5A localization in 4T1 cells; test: Immunofluorescence, subcellular localization of total eIF5A; assay type: cell-based, mouse; settings: 10 μM each drug, 48 hours
Excerpt: The next research questions revolved around asking how TGFβ is regulating eIF5A and what other proteins might be involved to completely block TGFβ-induced EMT. This led to histone deacetylase enzyme 6 (HDAC6). HDAC6 has been previously reported to be responsible for the deacetylation of eIF5A in the nucleus in order to make it readily available for hypusination and later transport out in the cytoplasm for functioning as a translation factor. To determine if it were possible to further increase the efficacy or potency of GC7, the inventors co-treated with Tubastatin A (an HDAC6 inhibitor) in 4T1 and 67NR cells as well as MDA-MB-468 cells which initially were not very sensitive to GC7. Triple negative human breast cancer cell line, BT547, was also used to see if another cell line representative of this breast cancer subtype was sensitive towards DHPS and HDAC6 inhibition. (FIGS. 5A and 5B). Here, are shown cell viability graphs for these four cell lines pretreated with GC7 at 1 μM and after 12 hours were exposed to various concentrations of Tubastatin A (TubA) ranging from 0.1 nM to 100 μM. […] MDA-MB-468 and BT549 cells remained to be insensitive to TubA with or without GC7 pretreatment (FIG. 5A). […]

4T1 cells = test: Cell number by phase-contrast images, with TGFβ; assay type: cell-based, mouse; settings: 10 μM each drug, 96-hour time point
Procedure: as §1
Images were taken of cells plated on a 6 well plate with appropriate conditions or treatments for experiment using widefield-brightfield phase contrast microscopy on a Leica DMI6000 B inverted microscope at 20× magnification.

breast cancer cells = test: GC7 potency after induction of EMT by TGFβ; assay type: cell-based; settings: induction of EMT by TGFβ treatment
[2] = system: FOXP3+ T regulatory cell populations; settings: increasing concentrations of GC7, type 1 diabetic mice in vivo; cited from earlier work

## N=C(N)NCCCCCCCN.O=S(=O)(O)O [GC7, N1-Guanyl-1,7-diaminoheptane]
E-cadherin in 4T1 cells
  TGFβ-induced EMT, E-cadherin protein expression: dramatically increased
[1]
  localization of total eIF5A: predominantly cytoplasmic
4T1 cells
  cell number: drastic reduction in cell number
Breast cancer cells
  GC7 potency after TGFβ-induced EMT: increases GC7 potency
[2]
  FOXP3+ T regulatory cell populations: significant reduction in FOXP3+ T regulatory cell populations
